Assay results reported in patent publication US11351218B2, “Composition for preventing or treating glioblastoma comprising Platycodon grandiflorum A. De Candolle, Scutellaria baicalensis, Phellodendron amurense Ruprecht or Rubus coreanus” (University-Industry Cooperation Group of Kyung Hee …, priority 2019, dated 2022).

Assays:
[1] = system: U87MG and U373MG cells; test: mRFP-GFP-LC3 tandem reporter (autolysosome formation) in GBM cells; assay type: cell-based, human; details: PD 10 μM or Rapa 1 μM, 24 hours
Method: Cells stably expressing mRFP-GFP-LC3 were incubated with PD (10 μM) or Rapa (1 μM) for 24 hours, and then analyzed by confocal microscopy. The merged images (yellow) show an overlap between GFP-LC3 (green) and mRFP-LC3 (red). The panels on the right are higher-magnification images of the boxed regions.
In order to examine whether PD induces accumulation of autophagosomes by inhibiting their maturation into autolysosomes, a tandem-tagged fluorescent reporter, mRFP-GFP-LC3, was used. The GFP fluorescence of the fusion protein is rapidly quenched in lysosomal acidic conditions, whereas the RFP fluorescence is relatively stable. The yellow dots in the merged image are indicative of autophagsomes and […] dots correspond to autolysosomes. The mRFP-GFP-LC3 plasmids were transfected into U87MG and U373MG cells, treated with PD for 24 hours, and subjected to confocal microscopy.

[2] = system: p-ERK; test: Immunoblot of ERK phosphorylation, U373MG cells; assay type: cell-based, human; details: PD treatment, 24 hours
Method: FIGS. 10A to 10D show the results that PD-mediated autophagy inhibition is independent of mTOR and MAPK signaling pathways. FIGS. 10A to 10C show the results in which cells were treated with PD (0 μM, 0.5 μM, 1 μM, 5 μM, and 10 μM) for 24 hours. The immunoblot analyses for p-ULK1 (Ser757), ULK1, p-S6K (Thr389), p-AKT (Ser473), ERK2, P-ERK, p-JNK1, Beclin, and ATG7 were performed using lysates from GBMs. […] Total protein extracts were analyzed by immunoblot analyses for p-ERK, LC3B, and SQSTM1. GAPDH was used as an internal control.
Cells treated with the concentrations and materials described in FIGS. 1-3B, 7, 8, 10, 13, 16, 18, and 20 were lysed in buffer containing 20 mM Tris-HCl (pH 7.5), 150 mM NaCl, 1 mM EDTA, 1 mM Na2EDTA, 1 mM EGTA, 1% NP-40, 1% sodium deoxycholate, 1 mM Na3VO4, 1 mM MPI, 1 mM PMSF, and PI cocktails for 15 to 20 minutes on ice. Cell lysates were separated by SDS-PAGE and transferred to nitrocellulose membranes. […] The protein bands were detected with ECL western Blotting Substrate (Thermo Fisher Scientific, Waltham, Mass., USA).
Previous studies have shown that PD enhances autophagy via mTOR/MAPK pathway. […] It is known that mTORC1 activation, measured by S6K phosphorylation, inhibits autophagy initiation by phosphorylating the ULK1 (Ser 757). […]

[3] = system: U87MG and U373MG cells; test: Cholesterol cell-based detection assay (filipin III staining) in GBM cells; parameters: species or system human; details: PD 10 μM or U18666a 1 μM, 24 hours
Method: FIGS. 15A and 15B show the results that PD promotes accumulation of cholesterol in lysosomes. Cells were treated with DMSO, PD (10 μM), or U18666a (1 μM) for 24 hours. […] Total cholesterol levels are expressed in cholesterol (μg) per protein (mg) of cell lysate and are shown as means±SD from two independent experiments.
Cells grown on coverslips were treated with the materials. Then, the cells were fixed with 4% PFA at room temperature for 10 minutes. The solution of Filipin III (Cayman) was added for staining of […] cholesterol and the samples were incubated in a dark room for 30 minutes. The images were examined under a Zeiss laser confocal microscope.
The present inventors concluded that PD inhibits the maturation of autophagosome into autolysosomes by inhibiting lysosomal degradation and an autophagosome-lysosome fusion in GBM cells. […] To examine whether the defect in the autophagosome-lysosome fusion by PD is due to altered intracellular cholesterol levels, the PD-treated GBM cells were stained with filipin-III, which is a fluorescent dye that binds to cholesterol. […] As can be confirmed in FIG. 14A, this filipin-III staining pattern is very similar to that found in GBM cells treated with U18666A, implying that PD blocks cholesterol release from lysosome and accumulates cholesterol in lysosomes.

[4] = system: LDLR-silenced GBM cells; test: WST1 assay and immunoblot in LDLR-silenced (shLDLR) GBM cells; assay type: cell-based, human
Text: FIGS. 20A and 20B show the results that downregulation of LDLR restores inhibition of autophagy and cell viability. […] The expressions of LDLR, LC3B, SQSTM1, and pro/active CTSB were detected by immunoblot analysis. GAPDH was used as a loading control. […] Data shown represent the means of quintuplicate measurements which were repeated three times. The results are presented as a percentage of control (means±SD).
shRNA sequences against LDLR were cloned into a lentiviral vector. For the production of lentivirus, the vectors were co-transfected with psPAX2 and pMD2.G in 293T cells using Lipofectamine 3,000 (Invitrogen). Then, the cultured medium was harvested. The viral supernatant was applied to GBMs and cells were selected in puromycin for 3 additional days. The shRNA sequence was as follows. shLDLR sequence: 5′-CCACTTGTAGGAGATGCAT-3′ (SEQ ID NO: 7).
The present inventors hypothesized that the enhanced expression of LDLR and uptake of exogenous cholesterol by PD may promote accumulation of cholesterol in lysosomes and contribute to PD-mediated inhibition of autophagy and cell viability in GBM cells. To this end, the expression of LDLR gene was silenced in GBM cells using lentiviral shRNA transduction.

C[C@@H]1O[C@@H](O[C@H]2[C@H](OC(=O)[C@]34CCC(C)(C)C[C@H]3C3=CC[C@@H]5[C@@]6(C)C[C@H](O)[C@H](O[C@@H]7O[C@H](CO)[C@@H](O)[C@H](O)[C@H]7O)C(CO)(CO)[C@@H]6CC[C@@]5(C)[C@]3(C)C[C@H]4O)OC[C@H](O)[C@@H]2O)[C@H](O)[C@H](O)[C@H]1O[C@@H]1OC[C@@H](O)[C@H](O[C@@H]2OC[C@](O)(CO)[C@H]2O)[C@H]1O [PD, platycodin D]
mRFP and GFP dots of mRFP-GFP-LC3 [1]: GFP-positive dots were retained and colocalized with mRFP dots | phosphorylation levels of ERK [2]: markedly increased | cellular cholesterol distribution (filipin-III staining) [3]: induces cholesterol accumulation within intracellular vesicles | reduction of cell viability ([4]; LDLR-silenced GBM cells, PD 10 μM or 20 μM, WST1): less effective | LC3-II, p62 and cathepsin B response to PD ([4]; knockdown of LDLR, PD 5 μM or 10 μM, 24 hours, immunoblot): prevented the upregulation of LC3-II and p62 as well as the inactivation of cathpsin B
